≈ marks a conversion by molar mass, not a printed value.
test system: not listed separately; experiment: Antiinflammatory activity against heat-induced albumin denaturation at […] preincubated for 15 mins before heat induction by UV-vis spectrophotometer analysis; type: functional; conditions: not given

SMILES | inhibition [%]
Clc1ccc(C2=NN(c3ccccc3)C(c3noc(-c4ccc(Cl)cc4)n3)C2)cc1 (configuration not stated) | 78.4
c1ccc(-c2cc(-c3noc(-c4ccccc4)n3)n(-c3ccccc3)n2)cc1 | 37

test system: Aspergillus flavus; experiment: Antimicrobial activity against Aspergillus flavus MTCC 873; type: functional; conditions: not given

SMILES | MIC [µg/mL]
Clc1ccc(C2=NN(c3ccccc3)C(c3noc(-c4ccc(Cl)cc4)n3)C2)cc1 (configuration not stated) | 10 (≈ 23 µM)
c1ccc(-c2cc(-c3noc(-c4ccccc4)n3)n(-c3ccccc3)n2)cc1 | 15 (≈ 41.2 µM)

test system: Aspergillus niger; experiment: Antimicrobial activity against Aspergillus niger MTCC 281; type: functional; conditions: not given

SMILES | MIC [µg/mL]
Clc1ccc(C2=NN(c3ccccc3)C(c3noc(-c4ccc(Cl)cc4)n3)C2)cc1 (configuration not stated) | 5 (≈ 11.5 µM)
c1ccc(-c2cc(-c3noc(-c4ccccc4)n3)n(-c3ccccc3)n2)cc1 | 20 (≈ 54.9 µM)

test system: Shigella flexneri; experiment: Antimicrobial activity against Shigella flexneri MTCC 1457; type: functional; conditions: not given

SMILES | MIC [µg/mL]
Clc1ccc(C2=NN(c3ccccc3)C(c3noc(-c4ccc(Cl)cc4)n3)C2)cc1 (configuration not stated) | 20 (≈ 45.9 µM)
c1ccc(-c2cc(-c3noc(-c4ccccc4)n3)n(-c3ccccc3)n2)cc1 | 55 (≈ 151 µM)

test system: Escherichia coli; experiment: Antimicrobial activity against Escherichia coli MTCC 724; type: functional; conditions: not given

SMILES | MIC [µg/mL]
Clc1ccc(C2=NN(c3ccccc3)C(c3noc(-c4ccc(Cl)cc4)n3)C2)cc1 (configuration not stated) | 20 (≈ 45.9 µM)
c1ccc(-c2cc(-c3noc(-c4ccccc4)n3)n(-c3ccccc3)n2)cc1 | 40 (≈ 110 µM)

test system: Klebsiella pneumoniae; experiment: Antimicrobial activity against Klebsiella pneumoniae MTCC 3384; type: functional; conditions: not given

SMILES | MIC [µg/mL]
Clc1ccc(C2=NN(c3ccccc3)C(c3noc(-c4ccc(Cl)cc4)n3)C2)cc1 (configuration not stated) | 25 (≈ 57.4 µM)
c1ccc(-c2cc(-c3noc(-c4ccccc4)n3)n(-c3ccccc3)n2)cc1 | 50 (≈ 137 µM)

test system: Staphylococcus aureus; experiment: Antimicrobial activity against Staphylococcus aureus MTCC 96; type: functional; conditions: not given

SMILES | MIC [µg/mL]
Clc1ccc(C2=NN(c3ccccc3)C(c3noc(-c4ccc(Cl)cc4)n3)C2)cc1 (configuration not stated) | 20 (≈ 45.9 µM)
c1ccc(-c2cc(-c3noc(-c4ccccc4)n3)n(-c3ccccc3)n2)cc1 | 55 (≈ 151 µM)

test system: Bacillus cereus; experiment: Antimicrobial activity against Bacillus cereus MTCC 8372; type: functional; conditions: not given

SMILES | MIC [µg/mL]
Clc1ccc(C2=NN(c3ccccc3)C(c3noc(-c4ccc(Cl)cc4)n3)C2)cc1 (configuration not stated) | 25 (≈ 57.4 µM)
c1ccc(-c2cc(-c3noc(-c4ccccc4)n3)n(-c3ccccc3)n2)cc1 | 35 (≈ 96 µM)

test system: Aspergillus niger; experiment: Antimicrobial activity against Aspergillus niger MTCC 281 at 50 ug/ml after 24 hrs by agar disc diffusion method; type: functional; conditions: MTCC 281, 24 h, read-out: DIZ

SMILES | zone of inhibition at 50 µg/mL [mm]
Clc1ccc(C2=NN(c3ccccc3)C(c3noc(-c4ccc(Cl)cc4)n3)C2)cc1 (configuration not stated) | 20
c1ccc(-c2cc(-c3noc(-c4ccccc4)n3)n(-c3ccccc3)n2)cc1 | 9

test system: Aspergillus niger; experiment: Antimicrobial activity against Aspergillus niger MTCC 281 at 100 ug/ml after 24 hrs by agar disc diffusion method; type: functional; conditions: MTCC 281, 24 h, read-out: DIZ

SMILES | zone of inhibition at 100 µg/mL [mm]
Clc1ccc(C2=NN(c3ccccc3)C(c3noc(-c4ccc(Cl)cc4)n3)C2)cc1 (configuration not stated) | 26
c1ccc(-c2cc(-c3noc(-c4ccccc4)n3)n(-c3ccccc3)n2)cc1 | 18

test system: Aspergillus flavus; experiment: Antimicrobial activity against Aspergillus flavus MTCC 873 at 100 ug/ml after 24 hrs by agar disc diffusion method; type: functional; conditions: MTCC 873, 24 h, read-out: DIZ

SMILES | zone of inhibition at 100 µg/mL [mm]
Clc1ccc(C2=NN(c3ccccc3)C(c3noc(-c4ccc(Cl)cc4)n3)C2)cc1 (configuration not stated) | 25
c1ccc(-c2cc(-c3noc(-c4ccccc4)n3)n(-c3ccccc3)n2)cc1 | 10

test system: Aspergillus flavus; experiment: Antimicrobial activity against Aspergillus flavus MTCC 873 at 50 ug/ml after 24 hrs by agar disc diffusion method; type: functional; conditions: MTCC 873, 24 h, read-out: DIZ

SMILES | zone of inhibition at 50 µg/mL [mm]
Clc1ccc(C2=NN(c3ccccc3)C(c3noc(-c4ccc(Cl)cc4)n3)C2)cc1 (configuration not stated) | 15
c1ccc(-c2cc(-c3noc(-c4ccccc4)n3)n(-c3ccccc3)n2)cc1 | 10

test system: Shigella flexneri; experiment: Antimicrobial activity against Shigella flexneri MTCC 1457 at 100 ug/ml after 24 hrs by agar disc diffusion method; type: functional; conditions: MTCC 1457, 24 h, read-out: DIZ

SMILES | zone of inhibition at 100 µg/mL [mm]
Clc1ccc(C2=NN(c3ccccc3)C(c3noc(-c4ccc(Cl)cc4)n3)C2)cc1 (configuration not stated) | 12
c1ccc(-c2cc(-c3noc(-c4ccccc4)n3)n(-c3ccccc3)n2)cc1 | 9

test system: Shigella flexneri; experiment: Antimicrobial activity against Shigella flexneri MTCC 1457 at 50 ug/ml after 24 hrs by agar disc diffusion method; type: functional; conditions: MTCC 1457, 24 h, read-out: DIZ

SMILES | zone of inhibition at 50 µg/mL [mm]
Clc1ccc(C2=NN(c3ccccc3)C(c3noc(-c4ccc(Cl)cc4)n3)C2)cc1 (configuration not stated) | 8
c1ccc(-c2cc(-c3noc(-c4ccccc4)n3)n(-c3ccccc3)n2)cc1 | 3

test system: Klebsiella pneumoniae; experiment: Antimicrobial activity against Klebsiella pneumoniae MTCC 3384 at 100 ug/ml after 24 hrs by agar disc diffusion method; type: functional; conditions: MTCC 3384, 24 h, read-out: DIZ

SMILES | zone of inhibition at 100 µg/mL [mm]
Clc1ccc(C2=NN(c3ccccc3)C(c3noc(-c4ccc(Cl)cc4)n3)C2)cc1 (configuration not stated) | 10
c1ccc(-c2cc(-c3noc(-c4ccccc4)n3)n(-c3ccccc3)n2)cc1 | 6

test system: Klebsiella pneumoniae; experiment: Antimicrobial activity against Klebsiella pneumoniae MTCC 3384 at 50 ug/ml after 24 hrs by agar disc diffusion method; type: functional; conditions: MTCC 3384, 24 h, read-out: DIZ

SMILES | zone of inhibition at 50 µg/mL [mm]
Clc1ccc(C2=NN(c3ccccc3)C(c3noc(-c4ccc(Cl)cc4)n3)C2)cc1 (configuration not stated) | 6
c1ccc(-c2cc(-c3noc(-c4ccccc4)n3)n(-c3ccccc3)n2)cc1 | 3

test system: Escherichia coli; experiment: Antimicrobial activity against Escherichia coli MTCC 724 at 100 ug/ml after 24 hrs by agar disc diffusion method; type: functional; conditions: MTCC 724, 24 h, read-out: DIZ

SMILES | zone of inhibition at 100 µg/mL [mm]
Clc1ccc(C2=NN(c3ccccc3)C(c3noc(-c4ccc(Cl)cc4)n3)C2)cc1 (configuration not stated) | 10
c1ccc(-c2cc(-c3noc(-c4ccccc4)n3)n(-c3ccccc3)n2)cc1 | 6

test system: Escherichia coli; experiment: Antimicrobial activity against Escherichia coli MTCC 724 at 50 ug/ml after 24 hrs by agar disc diffusion method; type: functional; conditions: MTCC 724, 24 h, read-out: DIZ

SMILES | zone of inhibition at 50 µg/mL [mm]
Clc1ccc(C2=NN(c3ccccc3)C(c3noc(-c4ccc(Cl)cc4)n3)C2)cc1 (configuration not stated) | 8
c1ccc(-c2cc(-c3noc(-c4ccccc4)n3)n(-c3ccccc3)n2)cc1 | 4

test system: Staphylococcus aureus; experiment: Antimicrobial activity against Staphylococcus aureus MTCC 96 at 100 ug/ml after 24 hrs by agar disc diffusion method; type: functional; conditions: MTCC 96, 24 h, read-out: DIZ

SMILES | zone of inhibition at 100 µg/mL [mm]
Clc1ccc(C2=NN(c3ccccc3)C(c3noc(-c4ccc(Cl)cc4)n3)C2)cc1 (configuration not stated) | 12
c1ccc(-c2cc(-c3noc(-c4ccccc4)n3)n(-c3ccccc3)n2)cc1 | 6

test system: Staphylococcus aureus; experiment: Antimicrobial activity against Staphylococcus aureus MTCC 96 at 50 ug/ml after 24 hrs by agar disc diffusion method; type: functional; conditions: MTCC 96, 24 h, read-out: DIZ

SMILES | zone of inhibition at 50 µg/mL [mm]
Clc1ccc(C2=NN(c3ccccc3)C(c3noc(-c4ccc(Cl)cc4)n3)C2)cc1 (configuration not stated) | 6
c1ccc(-c2cc(-c3noc(-c4ccccc4)n3)n(-c3ccccc3)n2)cc1 | 3

test system: Bacillus cereus; experiment: Antimicrobial activity against Bacillus cereus MTCC 8372 at 100 ug/ml after 24 hrs by agar disc diffusion method; type: functional; conditions: MTCC 8372, 24 h, read-out: DIZ

SMILES | zone of inhibition at 100 µg/mL [mm]
Clc1ccc(C2=NN(c3ccccc3)C(c3noc(-c4ccc(Cl)cc4)n3)C2)cc1 (configuration not stated) | 12
c1ccc(-c2cc(-c3noc(-c4ccccc4)n3)n(-c3ccccc3)n2)cc1 | 8

test system: Bacillus cereus; experiment: Antimicrobial activity against Bacillus cereus MTCC 8372 at 50 ug/ml after 24 hrs by agar disc diffusion method; type: functional; conditions: MTCC 8372, 24 h, read-out: DIZ

SMILES | zone of inhibition at 50 µg/mL [mm]
Clc1ccc(C2=NN(c3ccccc3)C(c3noc(-c4ccc(Cl)cc4)n3)C2)cc1 (configuration not stated) | 6
c1ccc(-c2cc(-c3noc(-c4ccccc4)n3)n(-c3ccccc3)n2)cc1 | 5

test system: not listed separately; experiment: Antioxidant activity against ferric chloride-induced lipid peroxidation using egg lecithin at 50 ug/ml after 1 hr; type: functional; conditions: not given

SMILES | inhibition [%]
Clc1ccc(C2=NN(c3ccccc3)C(c3noc(-c4ccc(Cl)cc4)n3)C2)cc1 (configuration not stated) | 58
c1ccc(-c2cc(-c3noc(-c4ccccc4)n3)n(-c3ccccc3)n2)cc1 | 40

test system: not listed separately; experiment: Antioxidant activity against ferric chloride-induced lipid peroxidation using egg lecithin at 100 ug/ml after 1 hr; type: functional; conditions: not given

SMILES | inhibition [%]
Clc1ccc(C2=NN(c3ccccc3)C(c3noc(-c4ccc(Cl)cc4)n3)C2)cc1 (configuration not stated) | 83
c1ccc(-c2cc(-c3noc(-c4ccccc4)n3)n(-c3ccccc3)n2)cc1 | 67

test system: not listed separately; experiment: Antioxidant activity against ferric chloride-induced lipid peroxidation using egg lecithin at 10 ug/ml after 1 hr; type: functional; conditions: not given

SMILES | inhibition [%]
Clc1ccc(C2=NN(c3ccccc3)C(c3noc(-c4ccc(Cl)cc4)n3)C2)cc1 (configuration not stated) | 34
c1ccc(-c2cc(-c3noc(-c4ccccc4)n3)n(-c3ccccc3)n2)cc1 | 26

test system: not listed separately; experiment: Antioxidant activity assessed as reducing power of ferric ion at 50 ug/ml after 20 mins; type: functional; set-up: scale not given: the % may be the effect or the level left; conditions: not given

SMILES | Activity [%]
Clc1ccc(C2=NN(c3ccccc3)C(c3noc(-c4ccc(Cl)cc4)n3)C2)cc1 (configuration not stated) | 32
c1ccc(-c2cc(-c3noc(-c4ccccc4)n3)n(-c3ccccc3)n2)cc1 | 14

test system: not listed separately; experiment: Antioxidant activity assessed as reducing power of ferric ion at 100 ug/ml after 20 mins; type: functional; set-up: scale not given: the % may be the effect or the level left; conditions: not given

SMILES | Activity [%]
Clc1ccc(C2=NN(c3ccccc3)C(c3noc(-c4ccc(Cl)cc4)n3)C2)cc1 (configuration not stated) | 86
c1ccc(-c2cc(-c3noc(-c4ccccc4)n3)n(-c3ccccc3)n2)cc1 | 65

test system: not listed separately; experiment: Antioxidant activity assessed as reducing power of ferric ion at 10 ug/ml after 20 mins; type: functional; set-up: scale not given: the % may be the effect or the level left; conditions: not given

SMILES | Activity [%]
Clc1ccc(C2=NN(c3ccccc3)C(c3noc(-c4ccc(Cl)cc4)n3)C2)cc1 (configuration not stated) | 16
c1ccc(-c2cc(-c3noc(-c4ccccc4)n3)n(-c3ccccc3)n2)cc1 | 10

test system: Radical scavenging activity; experiment: Antioxidant activity assessed as DPPH free radical scavenging activity at 50 ug/ml after 20 mins; type: functional; conditions: not given

SMILES | Activity [%]
Clc1ccc(C2=NN(c3ccccc3)C(c3noc(-c4ccc(Cl)cc4)n3)C2)cc1 (configuration not stated) | 53
c1ccc(-c2cc(-c3noc(-c4ccccc4)n3)n(-c3ccccc3)n2)cc1 | 28

test system: Radical scavenging activity; experiment: Antioxidant activity assessed as DPPH free radical scavenging activity at 100 ug/ml after 20 mins; type: functional; conditions: not given

SMILES | Activity [%]
Clc1ccc(C2=NN(c3ccccc3)C(c3noc(-c4ccc(Cl)cc4)n3)C2)cc1 (configuration not stated) | 82
c1ccc(-c2cc(-c3noc(-c4ccccc4)n3)n(-c3ccccc3)n2)cc1 | 39

test system: Radical scavenging activity; experiment: Antioxidant activity assessed as DPPH free radical scavenging activity at 10 ug/ml after 20 mins; type: functional; conditions: not given

SMILES | Activity [%]
Clc1ccc(C2=NN(c3ccccc3)C(c3noc(-c4ccc(Cl)cc4)n3)C2)cc1 (configuration not stated) | 29
c1ccc(-c2cc(-c3noc(-c4ccccc4)n3)n(-c3ccccc3)n2)cc1 | 18

— ChEMBL document CHEMBL2406981, “Novel pyrazoline amidoxime and their 1,2,4-oxadiazole analogues: synthesis and pharmacological screening” (Bioorg Med Chem Lett, 2013)
